Data taken from patent US11976083B2, “Inhibitors of peptidylarginine deiminases” (Gilead Sciences, Inc., priority 2020, dated 2024).

Molecular target: T1, human PAD4 (Homo sapiens, UniProt Q9UM07)
T1 construct: human PAD4 (NM_012387), A2-P663, was PCR amplified; His-SUMO (N, cleaved yes); made in house; host or cells: E. coli BL21(DE3)
Experiment: In vitro PAD4 BAEE biochemical assay
Conditions: BAEE substrate 3 mM, 5 nM PAD4, 2 mM calcium chloride; geometric mean of multiple experiments
How it was run: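 Recombinant human PAD4 (5 nM final) with 2 mM CaCl2 was preincubated with compound 30 min at 25 °C in MOPS buffer pH 7.6, then reacted with 3 mM BAEE for 2 h at 25 °C. After EDTA stop, released ammonia was detected by o-phthalaldehyde/DTT fluorescence (ex 405/em 535 nm); IC50 from four-parameter fit, geometric mean.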

T1 sequence (Q9UM07 2-663): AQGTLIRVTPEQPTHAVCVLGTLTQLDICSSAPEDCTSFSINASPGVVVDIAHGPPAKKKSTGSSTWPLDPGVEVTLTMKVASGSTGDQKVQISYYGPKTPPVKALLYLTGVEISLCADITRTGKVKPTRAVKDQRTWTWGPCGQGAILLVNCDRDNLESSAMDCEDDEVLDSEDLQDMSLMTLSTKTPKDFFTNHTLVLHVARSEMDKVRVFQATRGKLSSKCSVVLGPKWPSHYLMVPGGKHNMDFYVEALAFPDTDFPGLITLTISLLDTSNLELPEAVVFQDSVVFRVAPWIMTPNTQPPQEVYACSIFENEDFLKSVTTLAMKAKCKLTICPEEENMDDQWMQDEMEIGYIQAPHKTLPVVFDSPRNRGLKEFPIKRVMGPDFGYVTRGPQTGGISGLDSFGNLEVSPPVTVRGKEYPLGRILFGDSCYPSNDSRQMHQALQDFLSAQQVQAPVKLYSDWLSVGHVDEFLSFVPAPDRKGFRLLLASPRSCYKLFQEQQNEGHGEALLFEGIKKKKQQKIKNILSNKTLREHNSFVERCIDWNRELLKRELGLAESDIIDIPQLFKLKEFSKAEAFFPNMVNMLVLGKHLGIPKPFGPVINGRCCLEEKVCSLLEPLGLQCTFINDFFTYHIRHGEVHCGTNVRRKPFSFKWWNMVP

IC50	Structure (SMILES)
0.02 µM	C[C@H]1NC(=O)c2c(ccnc2C2CC2)CCCCCn2c(-c3nc4cc(C(=O)N5C[C@H](N)[C@@H]6CC[C@H]5C6)cc(F)c4n3C3CC3)cc3ccc1nc32 [Example 671, (2~{R})-17-[5-[(1~{S),4~ {R},5~{R})-4-amino-2-azabicyclo[3.2.1]octane-2-carbonyl]-1-cyclopropyl-7-fluoro-benzimidazol-2-yl]-6-cyclopropyl-2-methyl-3,7,16,22-tetrazatetracyclo [14.5.2.0^{5,10}.0^{19,23}] tricosa-1(22),5(10),6,8,17, 19(23),20-heptaen-4-one]
3.35 µM	COc1cc(C(=O)N[C@H]2CNCC[C@H]2O)cc2nc(-c3cc4ccc5nc4n3CCCCCCC(C)(C)C(=O)N[C@@H]5C)n(C)c12 [Example 295, ~{N}-[(3~{S},4~{R})-4-hydroxy-3-piperidyl]-7-methoxy-1-methyl-2-[(11~{R})-8,8,11-trimethyl-9-oxo-1,10,19-triazatricyclo[10.5.2.0^{15,18}]nonadeca-12(19),13,15(18),16-tetraen-17-yl]benzimidazole-5-carboxamide]
10 µM	COc1cc(C(=O)N2CCC[C@@H](N)C2)cc2nc(-c3cc4ccc5nc4n3CCCCCCNc3ncccc3-5)n(C)c12 [Example 50, [(3~{R})-3-amino-1-piperidyl]-[7-methoxy-1-methyl-2-(6,8,15,21-tetrazatetracyclo[13.5.2.0^{2,7}.0^{18,22}]docosa-1(21),2,4,6,16,18(22),19-heptaen-16-yl)benzimidazol-5-yl]methanone]
0.122 µM	C[C@H]1NC(=O)C(C)(C)CCCCCCn2c(-c3nc4cc(C(=O)N[C@H]5CNCC[C@@H]5F)c(F)cc4n3CC(F)F)cc3ccc1nc32 [Example 418, 1-(2,2-difluoroethyl)-6-fluoro-~{N}-[(3~{S},4~{S})-4-fluoro-3-piperidyl]-2-[(11~{R})-8,8,11-trimethyl-9-oxo-1,10,19-triazatricyclo[10.5.2.0^{15,18}]nonadeca-12(19),13,15(18),16-tetraen-17-yl]benzimidazole-5-carboxamide]
0.031 µM	C[C@H]1NC(=O)[C@@H]2C[C@H]2CCCCCn2c(-c3nc4cc(C(=O)N[C@H]5CNCC[C@@H]5F)c(F)cc4n3C3CC34CC4)cc3ccc1nc32 (stereo partly drawn) [Example 571, 6-fluoro-~{N}-[(3~ {S},4~{S})-4-fluoro-3-piperidyl]-2-[(2~{R}, 5~{R},7~{R})-2-methyl-4-oxo-3,13,19-triazatetracyclo[11.5.2.0^ {5,7}.0^{16,20}]icosa-1(19),14,16(20),17-tetraen-14-yl]-1-spiro [2.2]pentan-2-yl-benzimidazole-5-carboxamide]
0.033 µM	COc1cc(C(=O)N2CC[C@@H](OC)[C@@H](N)C2)cc2nc(-c3cc4ccc5nc4n3CC(F)(F)CCC[C@@H]3C[C@H]3C(=O)N[C@@H]5C)n(C)c12 [Example 848, (2~{R},5~{R},7~{R})-14-[5-[(3~{S},4~{R})-3-amino-4-methoxy-piperidine-1-carbonyl]-7-methoxy-1-methyl-benzimidazol-2-yl]-11,11-difluoro-2-methyl-3,13,19-triazatetracyclo[11.5.2.0^ {5,7}.0^{16,20}]icosa-1(19),14,16(20),17-tetraen-4-one]
0.052 µM	COc1cc(C(=O)N2C[C@H](N)[C@@H]3CC[C@H]2C3)cc2nc(-c3cc4ccc5nc4n3CCCCCC[C@@](F)(c3cccc(Cl)n3)C(=O)N[C@@H]5C)n(C)c12 [Example 887, (8~{R},11~{R})-17-[5-[(1~{S),4~{R},5~{R})-4-amino-2-azabicyclo[3.2.1]octane-2-carbonyl]-7-methoxy-1-methyl-benzimidazol-2-yl]-8-(6-chloro-2-pyridyl)-8-fluoro-11-methyl-1,10,19-triazatricyclo[10.5.2.0^ {15,18}]nonadeca-12(19),13,15(18), 16-tetraen-9-one]
0.018 µM	COc1cc(C(=O)N2[C@H]3CC[C@@H]2[C@H](N)C3)cc2nc(-c3cc4ccc5nc4n3CCCCCC[C@@H]3CCN(C3=O)[C@@H]5C)n(C)c12 [Example 138, (2˜{R},6˜{R})-14-[5-[(1˜{R},2˜{R},4˜{S})-2-amino-7-azabicyclo[2.2.1]heptane-7-carbonyl]-7-methoxy-1-methyl-benzimidazol-2-yl]-2-methyl-3,13,19-triazatetracyclo[11.5.2.1^{3,6}.0^{16,20}]henicosa-1(19),14,16(20),17-tetraen-21-one]
3.35 µM	COc1cc(C(=O)N2CC(N)CC(F)(F)C2)cc2nc(-c3cc4ccc5nc4n3CCCCCCC(C)(C)C(=O)N[C@@H]5C)n(C)c12 (stereo partly drawn) [Example 204, (11~{R})-17-[5-(5-amino-3,3-difluoro-piperidine-1-carbonyl)-7-methoxy-1-methyl-benzimidazol-2-yl]-8,8,11-trimethyl-1,10,19-triazatricyclo[10.5.2.0^{15,18}]nonadeca-12(19),13,15(18),16-tetraen-9-one]
0.023 µM	C[C@@H]1[C@H](N)CCCN1C(=O)c1cc(F)c2c(c1)nc(-c1cc3ccc4nc3n1CCCCCc1nc(Cl)ccc1C(=O)N[C@@H]4C)n2C1CC1 [Example 790, (2~{R})-17-[5-[(2~{R},3~{R})-3-amino-2-methyl-piperidine-1-carbonyl]-1-cyclopropyl-7-fluoro-benzimidazol-2-yl]-8-chloro-2-methyl-3,9,16,22-tetrazatetracyclo[14.5.2.0^ {5,10}.0^{19,23}]tricosa-1(21),5(10),6,8,17,19,22-heptaen-4-one]
0.025 µM	COc1cc(C(=O)N2C[C@H]3CC[C@@H]2[C@@H]3N)cc2nc(-c3cc4ccc5nc4n3CCCCCCCCC(=O)N[C@@H]5C)n(C)c12 [Example 289, (12~{R})-18-[5-[(1~{R},4~{R},7~{R})-7-amino-2-azabicyclo[2.2.1]heptane-2-carbonyl]-7-methoxy-1-methyl-benzimidazol-2-yl]-12-methyl-1,11,20-triazatricyclo[11.5.2.0^{16,19}]icosa-13(20),14,16(19),17-tetraen-10-one]
23.7 µM	COc1cc(C(=O)N[C@@H]2CNCCC2(F)F)cc2nc(-c3cc4ccc5nc4n3CCCCCCC(C)(C)C(=O)N[C@@H]5C)n(C)c12 [Example 296, ~{N}-[(3~{R})-4,4-difluoro-3-piperidyl]-7-methoxy-1-methyl-2-[(11~{R})-8,8,11-trimethyl-9-oxo-1,10,19-triazatricyclo[10.5.2.0^{15,18}]nonadeca-12(19),13,15(18),16-tetraen-17-yl]benzimidazole-5-carboxamide]
0.045 µM	C[C@H]1NC(=O)c2ccc(Cl)nc2CCCCCn2c(-c3nc4cc(C(=O)N5C[C@H](N)[C@@H]6CC[C@H]5[C@H]6F)cc(F)c4n3C3CC3)cc3ccc1nc32 [Example 669, (2~{R})-17-[5-[(1~{S}, 4~{R},5~{S},8~{S})-4-amino-8-fluoro-2-azabicyclo[3.2.1]octane-2-carbonyl]-1-cyclopropyl-7-fluoro-benzimidazol-2-yl]-8-chloro-2-methyl-3,9,16,22-tetrazatetracyclo[14.5.2.0^ {5,10).0^{19,23}]tricosa-1(22),5(10),6,8,17,19(23),20-heptaen-4-one]
0.031 µM	C[C@H]1NC(=O)[C@@H]2C[C@H]2CCCCCn2c(-c3nc4cc(C(=O)N[C@H]5CNCC[C@@H]5F)c(F)cc4n3[C@H]3C[C@H]3F)cc3ccc1nc32 [Example 826, 6-fluoro-1-[(1~{S},2~{R})-2-fluorocyclopropyl]-~{N}-[(3~{S),4~{S})-4-fluoro-3-piperidyl]-2-[(2~{R},5~{R},7~ {R})-2-methyl-4-oxo-3,13,19-triazatetracyclo [11.5.2.0^{5,7}.0^{16,20}]icosa-1(19),14,16(20),17-tetraen-14-yl]benzimidazole-5-carboxamide]
0.109 µM	COc1cc(C(=O)N2CC[C@@H](OC)[C@@H](N)C2)cc2nc(-c3cc4ccc5nc4n3CCCCCc3cc(Cl)cnc3C(=O)N[C@@H]5C)n(C)c12 [Example 783, (2~{R})-17-[5-[(3~{S},4~{R})-3-amino-4-methoxy-piperidine-1-carbonyl]-7-methoxy-1-methyl-benzimidazol-2-yl]-8-chloro-2-methyl-3,6,16,22-tetrazatetracyclo[14.5.2.0^ {5,10}.0^{19,23}] tricosa-1(21),5(10),6,8,17,19, 22-heptaen-4-one]
0.054 µM	COc1cc(C(=O)N2C[C@H](N)[C@@H]3CC[C@H]2C3)cc2nc(-c3cc4ccc5nc4n3CCCCCC[C@](c3ccccn3)(C(F)F)C(=O)N[C@@H]5C)n(C)c12 [Example 889, (8~{R},11~{R})-17-[5-[(1~{S},4~{R},5~{R})-4-amino-2-azabicyclo[3.2.1]octane-2-carbonyl]-7-methoxy-1-methyl-benzimidazol-2-yl]-8-(difluoromethyl)-11-methyl-8-(2-pyridyl)-1,10,19-triazatricyclo [10.5.2.0^{15,18}]nonadeca-12(19),13,15(18),16-tetraen-9-one]
0.081 µM	COc1cc(C(=O)N2CCC[C@@H](N)C2)cc2nc(-c3cc4ccc5nc4n3C[C@@H]3C[C@H]3COC[C@@H](C)C(=O)N[C@@H]5C)n(C)c12 [Example 265, (5~{R},9~{R},12~{R})-18-[5-[(3~{R})-3-aminopiperidine-1-carbonyl]-7-methoxy-1-methyl-benzimidazol-2-yl]-9,12-dimethyl-7-oxa-1,11,20-triazatetracyclo[11.5.2.0^{3,5}.0^{16,19}] icosa-13(20),14,16(19),17-tetraen-10-one]
0.031 µM	C[C@H]1NC(=O)c2ccc(Cl)nc2CCCCCn2c(-c3nc4cc(C(=O)N5C[C@H](N)[C@@H]6CC[C@H]5C6)cc(Cl)c4n3C3CC3)cc3ccc1nc32 [Example 812, (2~{R})-17-[5-[(1~{S},4~{R}, 5~{R})-4-amino-2-azabicyclo [3.2.1]octane-2-carbonyl]-7-chloro-1-cyclopropyl-benzimidazol-2-yl]-8-chloro-2-methyl-3,9,16,22-tetrazatetracyclo[14.5.2.0^ {5,10}.0^{19,23}]tricosa-1(21),5(10),6,8,17,19,22-heptaen-4-one]
